Assay results reported in patent EP1860116A1, “Trehalose conjugate with carnosine having antioxidant activity, stable to enzymatic hydrolysis, procedure for its preparation, and pharmaceutical, cosmetic and nutraceutical compositions that contain it” (Universita' Degli Studi Di Catania, priority 2006, dated 2007).

How the values were obtained:
[1] = system: low-density lipoproteins (LDL); assay: Antioxidant activity towards low-density lipoproteins (LDL): Cu2+-induced lipid peroxidation, MDA determined by HPLC; format: biochemical; settings: human LDL, peroxidation induced by copper (II) ions (40 µM), 4 h at 37°C, pH 7.4; conjugate at 5, 10, 20, 50, 100 and 200 µM; compared with carnosine
Method: In order to test the antioxidant activity of carnosine and the carbohydrate derivative, freeze-dried human LDL (Sigma) was used as lipid peroxidation target.
The MDA standard was obtained by hydrolysis of the bis-dimethylacetal derivative (Sigma) in 1% sulphuric acid.
The process of peroxidation of humane LDLs (Sigma), suspended in 20 mM ammonium acetate at pH 7.4, was triggered by the addition of Cu^2+ (40 µM) to the protein suspension, followed by a 4 h incubation at 37°C (Free Radic. Res. 35, 953, 2001; J. Agr. Food Chem. 45, 3362, 1997). The lipid peroxidation inhibiting effect of the trehalose-carnosine conjugate was evaluated by adding this molecule to the LDL-Cu^2+ system at increasing concentrations (5, 10, 20, 50, 100 and 200 µM). The peroxidation reaction was interrupted by adding an equal volume of acetonitrile, followed by double extraction with chloroform.
For the determination of MDA, the end product of lipid peroxidation, the aqueous extract was analysed by HPLC, using an analysis method reported in Anal. Biochem. 197, 191, 1991 (data reported in figure 1).

[2] = system: carnosinase contained in rat brain homogenate; assay: Enzymatic hydrolysis by brain carnosinase (rat brain homogenate, histidine quantified fluorometrically with OPA); format: in vitro ADME; settings: 20% rat brain homogenate, Tris buffer pH 8.1, 37°C for 2 h, compared with carnosine
Method: The breakdown of the carbohydrate conjugate of carnosine was measured by the following method: a 20% homogenate of rat brain was prepared with a 50 mM Tris buffer (Tris-(hydroxymethyl)-aminomethane) pH 8.1 containing 2 mM DTT (di-thio-threitol), and the mixture was centrifuged for 20 min at 19000 rpm. Part of the supernatant solution (192 µl) was incubated at 37°C for 2 h with the carnosine-trehalose conjugate, in a final volume of 300 µl. The reaction was interrupted by adding acetonitrile (300 µL), and the solution was subjected to double extraction with chloroform. The amount of histidine in the final solution was quantified fluorometrically after reacting with orthophthaldialdehyde OPA (Fluka), according to a method reported in Clin. Chim.

## O=C(CCNC[C@H]1O[C@H](O[C@H]2O[C@H](CO)[C@@H](O)[C@H](O)[C@H]2O)[C@H](O)[C@@H](O)[C@@H]1O)N[C@@H](Cc1c[nH]cn1)C(=O)O [compound I, 6-(β-alanyl-L-histidine)-6-deoxy-α,α'-trehalose]
[1]
  antioxidant activity (lipid peroxidation inhibiting effect): dose-dependent antioxidant effect, which was significantly greater than that of carnosine
[2]
  resistance to enzymatic hydrolysis by carnosinase: more resistant to the carnosinase contained in rat brain homogenate than carnosine
[2]; listed as compound according to the invention
  resistance to enzymatic hydrolysis by carnosinase: more resistant to enzymatic hydrolysis than carnosine
